Series [1] relates to NMDA receptor. Conditions: cited from earlier work.
The subject of series [2] is cannabinoid receptor. Conditions: cited from earlier work.
Series [3] in a line: Cyclic voltametry (oxidation potentials). Conditions: for oxidation (electron donation) potential by cyclic voltametry: scan +0 to 1.8 V, 100 mV per second, acetonitrile; for oxidation profile by cyclic voltametry: data not shown. It is filed as physicochemical. Here is the method: To investigate whether cannabinoids protect neurons against glutamate damage by reacting with ROS, the antioxidant properties of cannabidiol and other cannabinoids were assessed. Cyclic voltametry, a procedure that measures the ability of a compound to accept or donate electrons under a variable voltage potential, was used to measure the oxidation potentials of several natural and synthetic cannabinoids. These studies were performed with an EG&G Princeton Applied Research potentiostat/galvanostat (Model 273/PAR 270 software, NJ). The working electrode was a glassy carbon disk with a platinum counter electrode and silver/silver chloride reference. Tetraethylammonium chloride in acetonitrile (0.1 M) was used as an electrolyte. Cyclic voltametry scans were done from +0 to 1.8 V at scan rate of 100 mV per second. […] Anandamide, a cannabinoid receptor ligand without a cannabinoid like structure, was used as a non-responsive control. Each experiment was repeated twice with essentially the same results.

Series [4] is described as follows: Iron catalyzed dihydrorhodamine oxidation (Fenton reaction). Conditions: 50 μM dihydrorhodamine, 300 μM t-butyl hydroperoxide, 0.5 μM iron, 5 minutes.
Series [5] has as its system neurons (AMPA/kainate receptor mediated toxicity). The series can be described thus: AMPA and kainate receptor mediated toxicity in cultured neurons (LDH release). It is filed as cell-based, Wistar rat. The following applies: for attenuation of glutamate toxicity, comparison of antioxidants: 100 μM glutamate, equimolar 5 μM antioxidant (FIG. 5B).
Description: (§1) Primary neuronal cultures were prepared according to the method of Ventra et al. (J. Neurochem. 66:1752-1761, 1996). Fetuses were extracted by Cesarian section from a 17 day pregnant Wistar rat, and the feral brains were placed into phosphate buffered saline. The cortices were then dissected out, cut into small pieces and incubated with papain for nine minutes at 37° C. After this time the tissue was dissociated by passage through a fire polished Pasteur pipette, and the resultant cell suspension separated by centrifugation over a gradient consisting of 10 mg/ml bovine serum albumin and 10 mg/ml ovomucoid (a trypsin inhibitor) in Earls buffered salt solution. The pellet was then re-suspended in high glucose, phenol red free Dulbeco's modified Eagles medium containing 10% fetal bovine serum, 2 mM glutamine, 100 IU penicillin, and 100 μg/ml streptomycin (DMEM). Cells were counted, tested for vitality using the trypan blue exclusion test and seeded onto poly-D-lysine coated 24 multiwell plates. After 96 hours, 10 μM fluoro-deoxyuridine and 10 μM uridine were added to block glial cell growth.
Astrocyte conditioned DMEM was used throughout the AMPA/kainate toxicity procedure and following glutamate exposure in the NMDAr mediated toxicity protocol. Media was conditioned by 24 hour treatment over a confluent layer of type I astrocytes, prepared from two day old Wistar rat pups. Cortices were dissected, cut into small pieces, and enzymatically digested with 0.25% trypsin. Tissue was then dissociated by passage through a fire polished Pasteur pipette and the cell suspension plated into untreated 75 cm^2 T-flasks. After 24 hours the media was replaced and unattached cells removed. Once astrocytes achieved confluence, cells were divided into four flasks. Media for experiments was conditioned by a 24 hour exposure to these astrocytes, after which time it was frozen at −20° C. until use. Astrocyte cultures were used to condition DMEM for no longer than two months.
To examine AMPA and kainate receptor mediated toxicity, neurons were cultured for 7-13 days, then exposed to 100 μM glutamate and 50 μM cyclothiazide (used to prevent AMPA receptor desensitization). […] Specific AMPA and kainate receptor ligands were also used to separately examine the effects of cannabinoids on AMPA and kainate receptor mediated events. Fluorowillardiine (1.5 μM) was the AMPA agonist and 4-methyl glutamate (10 μM) was the kainate agonist used to investigate receptor mediated toxicity. When specifically examining kainate receptor activity, cyclothiazide was replaced with 0.15 mg/ml Concanavalin-A.
Series [6] has as its system cultured neurons (NMDAr mediated toxicity). Description: NMDA mediated toxicity in cultured neurons (LDH release). It is filed as cell-based, Wistar rat. The following applies: 0.5 μg/ml, administered both during and post ischemia (FIG. 8).
Description: as §1
To examine NMDAr mediated toxicity, cultured neurons (cultured for 14-18 days) were exposed to 250 μM glutamate for 10 minutes in a magnesium free saline solution. […]
The conditions of series [7]: J. Pharmacol. Sci. 60:1433-1457 (1971); cited from earlier work.

`CCCCCCC(C)(C)c1cc(O)c2c(c1)OC(C)(C)[C@@H]1CC=C(CO)CC21` (single isomer, unassigned; (-)) [HU-211]: the “activity at the NMDA receptor” value in series [1] is reported as “retains NMDA receptor antagonist neuroprotective activity”. Also, in series [2], the “affinity to the cannabinoid receptors” value is “low affinity”. The “oxidation (electron donation) potential by cyclic voltametry” value (“oxidation (electron donation) potential” below) in series [3] is given as “donated electrons at a similar potential as the antioxidant BHT”.

Regarding `CCCCC/C=C\C/C=C\C/C=C\C/C=C\CCCC(=O)NCCO` [Anandamide, arachidonyl ethanolamide], the “oxidation (electron donation) potential” value in series [3] is recorded as “did not undergo oxidation”.

`Cc1cc(C(C)(C)C)c(O)c(C(C)(C)C)c1` [BHT]: the “prevention of dihydrorhodamine oxidation” value in series [4] is “prevented dihydrorhodamine oxidation”. Moreover, the “attenuation of glutamate toxicity, comparison of antioxidants” value in series [5] is “attenuated glutamate toxicity”.

As for `CCCCC/C=C\C[C@H](O)/C=C/C=C\C/C=C\CCCC(=O)O` [Compound 12-HETE, 12-(s)-hydroxy-eicosatetraenoic acid], in series [6], the “protection of cortical neurons from NMDAr toxicity” value is on record as “best protection”.

As for `CCCCCCC(C)(C)c1cc(O)c2c(c1)OC(C)(C)[C@@H]1CC=C(CO)C[C@@H]21` [HU-210, 1,1 dimethylheptyl (DMH) homolog of [3R,4R]-7-hydroxy-Δ^6THC], the “cannabinomimetic activity relative to natural Δ^9 THC” value in series [2] (U.S. Pat. No. 5,434,295) was “two orders of magnitude greater”. Moreover, in series [7], the “side effects in subjects” value was “severe side effects, including fatigue, thirst, headache, and hypotension”.

For `CC(=O)Oc1cc(O[C@H](C)CCCc2ccccc2)cc2c1[C@@H]1C[C@H](O)CC[C@H]1[C@H](C)N2` [levanantrodol], the “oxidation profile by cyclic voltametry” value in series [3] was “oxidation profiles similar to cannabidiol and THC”.

Turning to `CCCCCCC(C)(C)c1cc(O)c2c(c1)OC(C)(C)C1CCC(=O)CC21` (stereo not shown) [nabilone], the “oxidation profile by cyclic voltametry” value in series [3] is “oxidation profiles similar to cannabidiol and THC”.

Turning to `Cc1c(C)c2c(c(C)c1O)CC[C@@](C)(CCC[C@H](C)CCC[C@H](C)CCCC(C)C)O2` [α-tocopherol], the “attenuation of glutamate toxicity, comparison of antioxidants” value in series [5] is given as “attenuated glutamate toxicity”.

For the compound tetrahydrocannabinol [THC], the “prevention of dihydrorhodamine oxidation” value in series [4] is on record as “prevented dihydrorhodamine oxidation”. In addition, in series [5] (5 μM compound plus SR-141716A (FIG. 2B)), the “neuroprotection in presence of cannabinoid receptor antagonist SR-141716A” value is “Neither THC nor cannabidiol neuroprotection was affected”. Further, the “neuroprotection in AMPA/kainate receptor toxicity assays” value in series [5] (100 μM Glu, 5 μM compound (FIG. 2A)) is “similarly protective”. The “oxidation (electron donation) potential” value in series [3] is listed as “donated electrons at a similar potential as the antioxidant BHT”.

The record behind these values is patent US6630507B1, “Cannabinoids as antioxidants and neuroprotectants” (The United States of America as represented by the …, priority 1998, dated 2003).
